Measured values: US12558428B2, “Heterobifunctional compounds and their use in treating disease” (Halda Therapeutics OpCo, Inc., priority 2024, dated 2026)
Where two headings read alike, the source gives them in different places.

Experiments:
Assay type in all cases: cell-based
[1] = tested on: T-Rex 293 cells having increased expression of estrogen receptor alpha protein; test: Cellular growth inhibition assay, T-Rex 293 cells, (+) doxycycline; settings: Table 7-A, T-Rex 293 cells with doxycycline (increased ERα expression), 72 hours, CellTiter-Glo, read-out: (+) Dox GI50
How it was run: (§1)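 Cells of an inducible ERα-expressing T-Rex 293 clone are seeded in charcoal-dextran FBS medium with or without 3 ng/mL doxycycline, then treated after 24 h with compound dilutions (0.5% DMSO) for 72 h. Growth inhibition is measured by CellTiter-Glo luminescence and expressed as GI50.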

[2] = tested on: T-Rex 293 cells lacking increased expression of estrogen receptor alpha protein; test: Cellular growth inhibition assay, T-Rex 293 cells, (−) doxycycline; settings: Table 7-A, T-Rex 293 cells without doxycycline (lacking increased ERα expression), 72 hours, CellTiter-Glo, read-out: (−) Dox GI50
How it was run: as §1

[3] = tested on: MCF7 cells (ATCC #HTB-22); test: Cellular growth inhibition assay, MCF7 cells purchased from ATCC; settings: Table 8-A, MCF7 cells purchased from ATCC, six days, CellTiter-Glo, read-out: GI50
How it was run: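 GI50 values come from a four-parameter fit of CellTiter-Glo 2.0 luminescence after six days of compound exposure at 37° C. Seeding density depended on the source: 225 cells/well for ECACC MCF7, 1,500 for ATCC. Medium was RPMI 1640 with 10% FBS and 0.2 U/ml insulin.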

SMILES	GI50 ([1]; T-REx-293, 72 h) [nM]	GI50 ([2]; T-REx-293, 72 h) [nM]	GI50 ([3]; Homo sapiens, MCF7, 144 h) [nM]	GI50 [1] [nM]	GI50 [2] [nM]	GI50 [3] [nM]
Cc1sc2c(c1C)C(c1ccc(NCCN3CCN(CCOc4ccc([C@@H]5c6ccc(O)cc6CC[C@@H]5c5ccccc5)cc4)CC3)cc1)=NC(Cc1ncco1)c1nnc(C)n1-2 (stereo partly drawn) [III-29]	< 50	50 to 500	50 to 500			
Cc1sc2c(c1C)C(c1ccc(NCC3(F)CCN(CCOc4ccc([C@@H]5c6ccc(O)cc6CC[C@@H]5c5ccccc5)cc4)CC3)cc1)=NC(Cc1ncco1)c1nnc(C)n1-2 (stereo partly drawn) [III-30]	< 50	50 to 500	50 to 500			
Cc1sc2c(c1C)C(c1ccc(N3C4CCC3CN(CCOc3ccc([C@@H]5c6ccc(O)cc6CC[C@@H]5c5ccccc5)cc3)C4)cc1)=NC(Cc1ncco1)c1nnc(C)n1-2 (stereo partly drawn) [III-31]	> 2500	50 to 500	50 to 500			
Cc1sc2c(c1C)C(c1ccc(NCCN3CCN(CCOc4ccc([C@@H]5c6ccc(O)cc6CC[C@@H]5c5ccccc5)cc4)CC3)cc1)=NC(Cc1ncco1)c1nnc(C)n1-2 (stereo partly drawn) [III-32]				< 50	50 to 500	50 to 500
Cc1sc2c(c1C)C(c1ccc(NCC3CCN(CCOc4ccc([C@@H]5c6ccc(O)cc6CC[C@@H]5c5ccccc5)cc4)CC3)cc1)=NC(Cc1ncco1)c1nnc(C)n1-2 (stereo partly drawn) [III-33]	< 50	50 to 500	50 to 500			
Cc1sc2c(c1C)C(c1ccc(NC3CCCN(CCOc4ccc([C@@H]5c6ccc(O)cc6CC[C@@H]5c5ccccc5)cc4)CC3)cc1)=NC(Cc1ncco1)c1nnc(C)n1-2 (stereo partly drawn) [III-34]	< 50	50 to 500	50 to 500			
Cc1sc2c(c1C)C(c1ccc(N3CCC(N4CCN(CCOc5ccc([C@@H]6c7ccc(O)cc7CC[C@@H]6c6ccccc6)cc5)CC4)CC3)cc1)=NC(Cc1ncco1)c1nnc(C)n1-2 (stereo partly drawn) [III-35]	< 50	50 to 500	< 50			
Cc1sc2c(c1C)C(c1ccc(N3CCC4(CCN(CCOc5ccc([C@@H]6c7ccc(O)cc7CC[C@@H]6c6ccccc6)cc5)C4)CC3)cc1)=NC(Cc1ncco1)c1nnc(C)n1-2 (stereo partly drawn) [III-36]	< 50	50 to 500	< 50			
Cc1sc2c(c1C)C(c1ccc(NCCCN3CCN(CCOc4ccc([C@@H]5c6ccc(O)cc6CC[C@@H]5c5ccccc5)cc4)CC3)cc1)=NC(Cc1ncco1)c1nnc(C)n1-2 (stereo partly drawn) [III-37]	< 50	50 to 500	< 50			
Cc1sc2c(c1C)C(c1ccc(N3CCC4(CCN(CCOc5ccc([C@@H]6c7ccc(O)cc7CC[C@@H]6c6ccccc6)cc5)CC4)CC3)cc1)=NC(Cc1ncco1)c1nnc(C)n1-2 (stereo partly drawn) [III-38]	< 50	50 to 500	< 50			
Cc1sc2c(c1C)C(c1ccc(NC[C@@H]3CN(CCOc4ccc([C@@H]5c6ccc(O)cc6CC[C@@H]5c5ccccc5)cc4)CCO3)cc1)=NC(Cc1ncco1)c1nnc(C)n1-2 (stereo partly drawn) [III-39]	< 50	50 to 500	< 50			
Cc1sc2c(c1C)C(c1ccc(N3C[C@H]4C[C@@H]3CN4CCOc3ccc([C@@H]4c5ccc(O)cc5CC[C@@H]4c4ccccc4)cc3)cc1)=NC(Cc1ncco1)c1nnc(C)n1-2 (stereo partly drawn) [III-40]	50 to 500	50 to 500	< 50			
Cc1sc2c(c1C)C(c1ccc(N3CCCN(CCCNCCOc4ccc([C@@H]5c6ccc(O)cc6CC[C@@H]5c5ccccc5)cc4)CC3)cc1)=NC(Cc1ncco1)c1nnc(C)n1-2 (stereo partly drawn) [III-42]	< 50	50 to 500	50 to 500			
Cc1sc2c(c1C)C(c1ccc(N[C@H]3CC[C@H](CNCCOc4ccc([C@@H]5c6ccc(O)cc6CC[C@@H]5c5ccccc5)cc4)CC3)cc1)=NC(Cc1ncco1)c1nnc(C)n1-2 (stereo partly drawn) [III-43]	< 50	50 to 500	50 to 500			
Cc1sc2c(c1C)C(c1ccc(N3CCCC(CN(C)CCOc4ccc([C@@H]5c6ccc(O)cc6CC[C@@H]5c5ccccc5)cc4)C3)cc1)=NC(Cc1ncco1)c1nnc(C)n1-2 (stereo partly drawn) [III-44]	50 to 500	500 to 2500	50 to 500			
Cc1sc2c(c1C)C(c1ccc(NCCC3CCCN(CCOc4ccc([C@@H]5c6ccc(O)cc6CC[C@@H]5c5ccccc5)cc4)C3)cc1)=NC(Cc1ncco1)c1nnc(C)n1-2 (stereo partly drawn) [III-45]	< 50	50 to 500	50 to 500			
Cc1sc2c(c1C)C(c1ccc(N[C@H]3CCN(CCOc4ccc([C@@H]5c6ccc(O)cc6CC[C@@H]5c5ccccc5)cc4)C[C@@H]3F)cc1)=NC(Cc1ncco1)c1nnc(C)n1-2 (stereo partly drawn) [III-46]	< 50	< 50	< 50			

SMILES	GI50 ([1]; T-REx-293, 72 h) [nM]	GI50 ([2]; T-REx-293, 72 h) [nM]	GI50 ([3]; Homo sapiens, MCF7, 144 h) [nM]	GI50 [1] [nM]	GI50 [2] [nM]	GI50 [3] [nM]
Cc1sc2c(c1C)C(c1ccc(N[C@H]3CCCCN(CCOc4ccc([C@@H]5c6ccc(O)cc6CC[C@@H]5c5ccccc5)cc4)C3)cc1)=NC(Cc1ncco1)c1nnc(C)n1-2 (stereo partly drawn) [III-47]	50 to 500	50 to 500	50 to 500			
Cc1sc2c(c1C)C(c1ccc(NCCCC3CCN(CCOc4ccc([C@@H]5c6ccc(O)cc6CC[C@@H]5c5ccccc5)cc4)CC3)cc1)=NC(Cc1ncco1)c1nnc(C)n1-2 (stereo partly drawn) [III-48]	< 50	50 to 500	< 50			
Cc1sc2c(c1C)C(c1ccc(NC[C@H]3CC[C@H](CNCCOc4ccc([C@@H]5c6ccc(O)cc6CC[C@@H]5c5ccccc5)cc4)CC3)cc1)=NC(Cc1ncco1)c1nnc(C)n1-2 (stereo partly drawn) [III-49]	< 50	50 to 500	< 50			
Cc1sc2c(c1C)C(c1ccc(N3CCN(C4CCN(CCOc5ccc([C@@H]6c7ccc(O)cc7CC[C@@H]6c6ccccc6)cc5)C4)CC3)cc1)=NC(Cc1ncco1)c1nnc(C)n1-2 (stereo partly drawn) [III-50]	< 50	50 to 500	< 50			
Cc1sc2c(c1C)C(c1ccc(NCC3CC4(C3)CN(CCOc3ccc([C@@H]5c6ccc(O)cc6CC[C@@H]5c5ccccc5)cc3)C4)cc1)=NC(Cc1ncco1)c1nnc(C)n1-2 (stereo partly drawn) [III-51]	< 50	50 to 500	< 50			
Cc1sc2c(c1C)C(c1ccc(N[C@H]3CC[C@@H](NCCOc4ccc([C@@H]5c6ccc(O)cc6CC[C@@H]5c5ccccc5)cc4)CC3)cc1)=NC(Cc1ncco1)c1nnc(C)n1-2 (stereo partly drawn) [III-52]	50 to 500	50 to 500	50 to 500			
Cc1sc2c(c1C)C(c1ccc(NCC3CCCN(CCOc4ccc([C@@H]5c6ccc(O)cc6CC[C@@H]5c5ccccc5)cc4)C3)cc1)=NC(Cc1ncco1)c1nnc(C)n1-2 (stereo partly drawn) [III-53]	50 to 500	50 to 500	50 to 500			
Cc1sc2c(c1C)C(c1ccc(N3CCC[C@@H](CNCCOc4ccc([C@@H]5c6ccc(O)cc6CC[C@@H]5c5ccccc5)cc4)C3)cc1)=NC(Cc1ncco1)c1nnc(C)n1-2 (stereo partly drawn) [III-54]	50 to 500	50 to 500	50 to 500			
Cc1sc2c(c1C)C(c1ccc(N3CCCC4(CCN(CCOc5ccc([C@@H]6c7ccc(O)cc7CC[C@@H]6c6ccccc6)cc5)CC4)C3)cc1)=NC(Cc1ncco1)c1nnc(C)n1-2 (stereo partly drawn) [III-55]	50 to 500	500 to 2500	50 to 500			
Cc1sc2c(c1C)C(c1ccc(NCC3CCCCN3CCOc3ccc([C@@H]4c5ccc(O)cc5CC[C@@H]4c4ccccc4)cc3)cc1)=NC(Cc1ncco1)c1nnc(C)n1-2 (stereo partly drawn) [III-56]	50 to 500	50 to 500	50 to 500			
Cc1sc2c(c1C)C(c1ccc(NCC3CCN(CCOc4ccc([C@@H]5c6ccc(O)cc6CC[C@@H]5c5ccccc5)cc4)C3)cc1)=NC(Cc1ncco1)c1nnc(C)n1-2 (stereo partly drawn) [III-57]	50 to 500	50 to 500	50 to 500			
Cc1sc2c(c1C)C(c1ccc(N[C@H]3CC[C@H](NCCOc4ccc([C@@H]5c6ccc(O)cc6CC[C@@H]5c5ccccc5)cc4)CC3)cc1)=NC(Cc1ncco1)c1nnc(C)n1-2 (stereo partly drawn) [III-58]	< 50	50 to 500	50 to 500			
Cc1sc2c(c1C)C(c1ccc(N[C@H]3C[C@H]4CC[C@@H](C3)N4CCOc3ccc([C@@H]4c5ccc(O)cc5CC[C@@H]4c4ccccc4)cc3)cc1)=NC(Cc1ncco1)c1nnc(C)n1-2 (stereo partly drawn) [III-59]	< 50	50 to 500	50 to 500			
Cc1sc2c(c1C)C(c1ccc(N3CCOC4(CCN(CCOc5ccc([C@@H]6c7ccc(O)cc7CC[C@@H]6c6ccccc6)cc5)CC4)C3)cc1)=CC(Cc1ncco1)c1nnc(C)n1-2 (stereo partly drawn) [III-60]	50 to 500	50 to 500	50 to 500			
Cc1sc2c(c1C)C(c1ccc(N3CC[C@@H](CNCCOc4ccc([C@@H]5c6ccc(O)cc6CC[C@@H]5c5ccccc5)cc4)C3)cc1)=NC(Cc1ncco1)c1nnc(C)n1-2 (stereo partly drawn) [III-61]	< 50	50 to 500	< 50			
Cc1sc2c(c1C)C(c1ccc(N3CCC(C)(CNCCOc4ccc([C@@H]5c6ccc(O)cc6CC[C@@H]5c5ccccc5)cc4)CC3)cc1)=NC(Cc1ncco1)c1nnc(C)n1-2 (stereo partly drawn) [III-62]	< 50	50 to 500	50 to 500			
Cc1sc2c(c1C)C(c1ccc(N3CCN(C4CCN(CCOc5ccc([C@@H]6c7ccc(O)cc7CC[C@@H]6c6ccccc6)cc5)CC4)CC3)cc1)=NC(Cc1ncco1)c1nnc(C)n1-2 (stereo partly drawn) [III-63]	< 50	50 to 500	50 to 500			
